# According to paper PMC8536644, “Enigmatic mechanism of the N-vinylpyrrolidone hepatocarcinogenicity in the rat” (Archives of Toxicology, 2021):
# Where “and” joins values, the source holds several entries; their conditions need not be identical. Identical values can stand only once.
# What was measured:
# [1] = system: rat liver cells; conditions: rats, ref BASF [2011], cited from earlier work
# [2] = system: rat lung cells; assay: Comet assay in presence of FPG, lung; conditions: with FPG, 5 days; for TI (%), mean of medians from 2 slides: individual animals
# Procedure: Animals were anesthetized by 3.5% isoflurane (approximately 3 min, evaporator Dräger Vapor 19.3) and then killed by cervical dislocation. The liver was removed and its left lateral lobe used for the Comet assay. The remainder of the liver was washed in saline and then in two aliquots shock frozen in liquid nitrogen and stored at − 80 °C for later examinations. Subsequently the lung was removed from the dead animal. Its left lobe was used for the Comet assay and the remainder treated as described above for the liver. Thereafter the femora were removed for the preparation of the bone marrow.
# The Comet assay was performed under alkaline conditions according to the principles described by Singh et al. ([1988]) and Tice et al. ([2000]).
# Liver and lung cells were obtained essentially as described by Hartmann et al. ([2004]) and by the Japanese Center for the Validation of Alternative Methods (JaCVAM [2009]). Single cells were obtained within 1 h after killing of the animals in order to minimize DNA damage during the preparation.
# The organ parts (see above) were washed in mincing buffer (50 mM EDTA in HBSS [without Ca^2+ and Mg^2+] pH 7.5: DMSO 9:1 (v/v), the latter added shortly before use, stored at 4 °C), cut into 1 to 2-mm pieces in ice-cold mincing buffer and transferred to a cell sieve with 70-µm pores. The viability of the cell suspension was evaluated by the Trypan Blue Assay (Strober [2001]).
# 100 µL of the obtained cell suspension was mixed at 37 °C with 900 µL Low Melting Agarose (LMA) (0.7% agarose in phosphate-buffered saline [PBS] [Biochrom, Berlin, Germany] without Ca^2+ and Mg^2+). 100 µL of this mixture was transferred to a slide, which had been coated with Normal Melting Agarose (NMA) (0.6% agarose in PBS without Ca^2+ and Mg^2+). The slides were protected with a cover slip and the agarose was hardened at approximately 4 °C. The cover slips were then removed and the slides put over night at 4 °C into lysis buffer (2.5 M NaCl, 125 mM NaOH, 127 mM EDTA, 10 mM Tris/NaOH, pH 10; 1% Triton X-100 and 10% DMSO (v/v), the latter two added before use) in order to lyse the cell membrane, nuclear membrane and remove the histone.
# The then following procedures were performed in a shaded room to minimize UV-mediated DNA damage during the procedures.
# Those slides which were destined to be treated with the DNA base excision repair enzyme FPG (Sigma Aldrich, Steinheim, Germany) were washed (3 times for 5 min) with FPG buffer (0.04 M HEPES, 0.5 mM EDTA, 0.1 M KCl, pH 8; add shortly before use bovine serum albumin [BSA] to a final concentration of 0.02%). Subsequently 50 µL FPG-enzyme-buffer (prepared shortly prior to use by 30-fold dilution of the following suspension in FPG buffer: 7 µL FPG-enzyme (14 U) and 70 µL glycerol in 623 µL FPG-Puffer, stored at − 80 °C) was pipetted on the slide which was covered with a cover slide and incubated for 30 min at 37 °C while being placed on a humid filter paper. After hardening of the agarose cover slips were removed.
# Remaining lysis buffer or FPG buffer was removed by immersing/washing the slides in PBS (without Ca^2+ and Mg^2+).
# [3] = system: palmitoyl CoA oxidase/acyl CoA oxidase; assay: Cyanide-insensitive palmitoyl-CoA oxidase assay, liver cytosol (PPARα marker); type: in vivo, rat; conditions: male rats
# Procedure: Cyanide-insensitive palmitoyl-CoA oxidase was determined essentially according to the method by Lazarow ([1981]), specifically as follows:
# Five µL of the liver cytosol (prepared as described in the preceding chapter “Aryl hydrocarbon receptor”) derived from the NVP-treated (and untreated control) male rats were mixed in a centrifugal analyzer Cobas Fara II (Hoffmann La Roche) with 250 µL reaction mixture consisting of 28.2 mL 50 mM Tris buffer pH 8.01, 150 µL 2% Triton-X-100, 300 µL 1 mM FAD, 300 µL 10 mM CoA, 150 µL 1.5% BSA, 90 µL 0.33 mM dithiothreitol, 300 µL 20 mM NAD and after homogenization 300 µL 100 mM KCN. The reaction was started by adding 5 µL of 5.03 µM palmitoyl-CoA aqueous solution. The increase of the absorption at ʎ = 334 nm due to NADH formation was determined and translated to palmitoyl-CoA oxidase U/L by the Cobas Fara II software.
# [4] = system: mice; design: method as in Klimisch et al. [1997b]; conditions: inhalation, ref Klimisch et al. [1997b]; cited from earlier work
# [5] = system: CYP2B; assay: PROD inhibition control in Aroclor 1254-induced rat liver microsomes; type: biochemical; conditions: for PROD enzyme activity: 0 µM control 78.9 ± 3.2
# Procedure: For determination of the enzyme activities in triplicates, 85 µL master mix (100 mM TrisHCl pH 7.5, 2 mM 5’AMP, 5 mM G-6-P, 10 U G-6-P-DH, 10 mM Dicumarol, 10 mM MgCl2, either 2 µM EROD or 10 µM PROD or 5 µM BROD) was added to 10 µL microsomal fraction (1 mg protein/mL). The reaction was started by the addition of 5 µL 2 mM NADPH (dissolved in 100 mM TrisHCl pH 7.5) followed by incubation at 37 °C for 16 min. The activity was determined by measuring the increase of the fluorescence (excitation at 550 nm, emission at 585 nm) due to resorufin formation compared with resorufin standards, which had been prepared by dissolving tenfold concentrated solutions in DMSO, which were then diluted tenfold in 100 mM TrisHCl pH 7.5.
# As a method control the described AROD assay was performed with microsomal fractions derived from liver and lung of male Wistar rats which had been treated i.p. for 5 days with aroclor 1254 (500 mg/kg bw). These control assays were performed in presence of 1 μM, 10 μM or 100 μM NVP, respectively, in order to check for potential interactions of NVP with the substrate turnover in the AROD assay.
structure (smiles),measurement,setting,value
"C=CN1CCCC1=O [NVP, N-vinylpyrrolidone]",Concentration from which liver cell proliferation is significantly increased,[1]; inhalation for 7 days,≥ 1 ppm
same,Concentration giving a significant increase of liver cell proliferation (zones 3 and 2),[1]; inhalation for 28 days,0.5 ppm
same,Hedgehogs/100 cells (mean ± SD),"[2]; female, 5 ppm inhalation",3 ± 2 /100 cells
same,TI (%) (mean ± SD),"[2]; female, 5 ppm inhalation",7.8 ± 1.30%
same,"TI (%), mean of medians from 2 slides","[2]; female, 5 ppm inhalation",8.6% and 7.0% and 6.8% and 10.1% and 7.1% and 7.3%
same,Hedgehogs/100 cells (mean ± SD),"[2]; female, 10 ppm inhalation",1 ± 1 /100 cells
same,TI (%) (mean ± SD),"[2]; female, 10 ppm inhalation",7.2 ± 1.81%
same,"TI (%), mean of medians from 2 slides","[2]; female, 10 ppm inhalation",8.7% and 8.1% and 7.9% and 8.4% and 6.0% and 4.0%
same,Hedgehogs/100 cells (mean ± SD),"[2]; female, 20 ppm inhalation",3 ± 1 /100 cells
same,TI (%) (mean ± SD),"[2]; female, 20 ppm inhalation",7.4 ± 2.90%
same,"TI (%), mean of medians from 2 slides","[2]; female, 20 ppm inhalation",6.2% and 8.6% and 10.2% and 2.3% and 7.7% and 9.7%
same,Hedgehogs/100 cells (mean ± SD),"[2]; male, 5 ppm inhalation",2 ± 2 /100 cells
same,TI (%) (mean ± SD),"[2]; male, 5 ppm inhalation",6.4 ± 0.69%
same,"TI (%), mean of medians from 2 slides","[2]; male, 5 ppm inhalation",6.1% and 7.5% and 6.6% and 5.5% and 6.5%
same,Hedgehogs/100 cells (mean ± SD),"[2]; male, 10 ppm inhalation",4 ± 4 /100 cells
same,TI (%) (mean ± SD),"[2]; male, 10 ppm inhalation",7.9 ± 3.21%
same,"TI (%), mean of medians from 2 slides","[2]; male, 10 ppm inhalation",12.0% and 3.6% and 6.0% and 7.3% and 7.2% and 11.4%
same,Hedgehogs/100 cells (mean ± SD),"[2]; male, 20 ppm inhalation",1 ± 1 /100 cells
same,TI (%) (mean ± SD),"[2]; male, 20 ppm inhalation",3.9 ± 0.72%
same,"TI (%), mean of medians from 2 slides","[2]; male, 20 ppm inhalation",3.8% and 3.5% and 5.2% and 3.6% and 3.3% and 4.2%
same,Cyanide-insensitive palmitoyl CoA oxidase activity in liver cytosol,[3]; 5 ppm,5.43 ± 0.71 nmol/min/mg protein
same,Cyanide-insensitive palmitoyl CoA oxidase activity in liver cytosol,[3]; 10 ppm,5.47 ± 0.71 nmol/min/mg protein
same,Cyanide-insensitive palmitoyl CoA oxidase activity in liver cytosol,"[3]; 20 ppm, statistically significantly reduced",4.68 ± 0.71 nmol/min/mg protein
same,"Concentration at which erythrocytes, hematocrit and hemoglobin were reduced",[4],15 ppm
same,"LOAEC, liver (increased gamma-glutamyl transpeptidase and glutathione)",[4],10 ppm
same,"LOAEC, nasal mucosa (inflammation, olfactory epithelium atrophy, basal cell hyperplasia)",[4],5 ppm
same,PROD enzyme activity,[5]; 1 µM NVP,88.6 ± 3.3 pmol/min/mg protein
same,PROD enzyme activity,[5]; 10 µM NVP,92.1 ± 6.0 pmol/min/mg protein
same,PROD enzyme activity,[5]; 100 µM NVP,94.6 ± 2.3 pmol/min/mg protein
same,Inhibition of PROD activity,"[5]; 1, 10 or 100 µM NVP",does not lead to inhibition
